Data taken from US6737383B1, “Herbicidal oxadiazolidines” (priority 1999, dated 2004).

Experiments:
bedstraw = experiment: Test B pre/postemergence bedstraw; assay type: in vivo, Galium aparine
Method in brief: (§1)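 Test chemicals in a non-phytotoxic solvent mixture with surfactant were sprayed preemergence onto planted seeds and postemergence onto plants 2 to 18 cm tall (1- to 4-leaf stage). After twelve to sixteen days in a greenhouse, injury was visually rated against untreated controls from 0 (no effect) to 10 (complete control).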

blackgrass = experiment: Test B pre/postemergence blackgrass; assay type: in vivo, Alopecurus myosuroides
Method in brief: as §1

surinam grass = experiment: Test B pre/postemergence surinam grass; assay type: in vivo, Brachiaria decumbens
Method in brief: as §1

cocklebur = experiment: Test B pre/postemergence cocklebur; assay type: in vivo, Xanthium strumarium
Method in brief: as §1

corn = experiment: Test B pre/postemergence corn; assay type: in vivo, Zea mays
Method in brief: as §1

crabgrass = experiment: Test B pre/postemergence crabgrass; assay type: in vivo, Digitaria sanguinalis
Method in brief: as §1

giant foxtail = experiment: Test B pre/postemergence giant foxtail; assay type: in vivo, Setaria faberii
Method in brief: as §1

rape = experiment: Test B pre/postemergence rape; assay type: in vivo, Brassica napus
Method in brief: as §1

soybean = experiment: Test B pre/postemergence soybean; assay type: in vivo, Glycine max
Method in brief: as §1

sugar beet = experiment: Test B pre/postemergence sugar beet; assay type: in vivo, Beta vulgaris
Method in brief: as §1

velvetleaf = experiment: Test B pre/postemergence velvetleaf; assay type: in vivo, Abutilon theophrasti
Method in brief: as §1

wheat = experiment: Test B pre/postemergence wheat; assay type: in vivo, Triticum aestivum
Method in brief: as §1

purple nutsedge = experiment: Test B pre/postemergence purple nutsedge; assay type: in vivo, Cyperus rotundus
Method in brief: as §1

rice = experiment: Test B flood test rice; assay type: in vivo, Oryza sativa
Method in brief: (§2)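 Flood test on plants grown to the 2-leaf stage; treated plants kept in greenhouse twelve to sixteen days, then visually rated against controls on a 0 (no effect) to 10 (complete control) scale.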

smallflower flatsedge = experiment: Test B flood test smallflower flatsedge; assay type: in vivo, Cyperus difformis
Method in brief: as §2

duck salad = experiment: Test B flood test duck salad; assay type: in vivo, Heteranthera limosa
Method in brief: as §2

bamyardgrass = experiment: Test B flood test barnyardgrass; assay type: in vivo, Echinochloa crus-galli
Method in brief: as §2

[1] = Preemergence, Rate 62 g/ha, scale of 0 to 10 where 0 is no effect and 10 is complete control
[2] = Preemergence, Rate 250 g/ha, scale of 0 to 10 where 0 is no effect and 10 is complete control
[3] = Preemergence, Rate 500 g/ha, scale of 0 to 10 where 0 is no effect and 10 is complete control
[4] = Rate 62 g/ha, Postemergence, scale of 0 to 10 where 0 is no effect and 10 is complete control
[5] = Rate 125 g/ha, Postemergence, scale 0 to 10
[6] = Rate 125 g/ha, Preemergence, scale of 0 to 10 where 0 is no effect and 10 is complete control
[7] = Rate 500 g/ha, Postemergence, scale 0 to 10
[8] = Rate 62 g/ha, headed Pre-emergence (flood test species), scale 0 to 10 (0 no effect, 10 complete control)
[9] = Rate 125 g/ha, Pre-emergence, flood test species, scale 0 to 10 where 0 is no effect and 10 is complete control
[10] = Rate 250 g/ha, Pre-emergence, flood-test species, scale 0 to 10, 0 is no effect, 10 is complete control
[11] = Rate 500 g/ha, Pre-emergence, flood test species, scale 0 to 10 (0 no effect, 10 complete control)

## CC(C)N(C(=O)n1oc(=O)n(CC(=O)C(C)(C)C)c1=O)c1ccc(F)cc1 [Compound 216]
bedstraw; [1]
  Bedstraw plant response rating: 0
bedstraw; [2]
  Bedstraw plant response rating: 0
bedstraw; [3]
  Plant response rating, Bedstraw: 0
bedstraw; [4]
  Bedstraw plant response rating: 0
bedstraw; [5]
  Bedstraw plant response rating: 0
bedstraw; [6]
  Bedstraw plant response rating: 0
bedstraw; Rate 250 g/ha, Postemergence
  Plant response rating (0 to 10; 0 is no effect, 10 is complete control), Bedstraw: 2
blackgrass; [1]
  Blackgrass plant response rating: 0
blackgrass; [2]
  Blackgrass plant response rating: 4
blackgrass; [3]
  Plant response rating, Blackgrass: 4
blackgrass; [4]
  Blackgrass plant response rating: 0
blackgrass; [5]
  Blackgrass plant response rating: 4
blackgrass; [6]
  Blackgrass plant response rating: 2
blackgrass; Rate 250 g/ha, Postemergence
  Plant response rating (0 to 10; 0 is no effect, 10 is complete control), Blackgrass: 8
blackgrass; [7]
  Blackgrass plant response rating: 8
Surinam grass; [1]
  B. signalgrass plant response rating: 0
Surinam grass; Preemergence, Rate 250 g/ha, scale 0 to 10, 0 is no effect, 10 is complete control
  B. signalgrass plant response rating: 4
Surinam grass; [3]
  Plant response rating, B. signalgrass: 4
Surinam grass; [4]
  B. signalgrass plant response rating: 0
Surinam grass; Rate 125 g/ha, Postemergence, scale 0 (no effect) to 10 (complete control)
  B. signalgrass plant response rating: 2
Surinam grass; [6]
  B. signalgrass plant response rating: 1
Surinam grass; Rate 250 g/ha, Postemergence
  Plant response rating (0 to 10; 0 is no effect, 10 is complete control), B. signalgrass: 5
Surinam grass; Rate 500 g/ha, Postemergence, scale 0 to 10, 0 no effect, 10 complete control
  B. signalgrass plant response rating: 8
cocklebur; [1]
  Cocklebur plant response rating: 0
cocklebur; [2]
  Cocklebur plant response rating: 0
cocklebur; [3]
  Plant response rating, Cocklebur: 0
cocklebur; [4]
  Cocklebur plant response rating: 0
cocklebur; [5]
  Cocklebur plant response rating: 0
cocklebur; [6]
  Cocklebur plant response rating: 0
cocklebur; Rate 250 g/ha, Postemergence
  Plant response rating (0 to 10; 0 is no effect, 10 is complete control), Cocklebur: 0
cocklebur; [7]
  Cocklebur plant response rating: 3
corn; [1]
  Corn plant response rating: 0
corn; [2]
  Corn plant response rating: 0
corn; [3]
  Plant response rating, Corn: 0
corn; [4]
  Corn plant response rating: 0
corn; [5]
  Corn plant response rating: 0
corn; [6]
  Corn plant response rating: 0
corn; Rate 250 g/ha, Postemergence
  Plant response rating (0 to 10; 0 is no effect, 10 is complete control), Corn: 2
corn; [7]
  Corn plant response rating: 3
crabgrass; [1]
  Crabgrass plant response rating: 0
crabgrass; [2]
  Crabgrass plant response rating: 8
crabgrass; [3]
  Plant response rating, Crabgrass: 8
crabgrass; [4]
  Crabgrass plant response rating: 0
crabgrass; [5]
  Crabgrass plant response rating: 2
crabgrass; [6]
  Crabgrass plant response rating: 3
crabgrass; Rate 250 g/ha, Postemergence
  Plant response rating (0 to 10; 0 is no effect, 10 is complete control), Crabgrass: 4
crabgrass; [7]
  Crabgrass plant response rating: 7
Giant foxtail; [1]
  Giant foxtail plant response rating: 0
Giant foxtail; [2]
  Giant foxtail plant response rating: 7
Giant foxtail; [3]
  Plant response rating, Giant foxtail: 9
Giant foxtail; [4]
  Giant foxtail plant response rating: 0
Giant foxtail; [5]
  Giant foxtail plant response rating: 2
Giant foxtail; [6]
  Giant foxtail plant response rating: 6
Giant foxtail; Rate 250 g/ha, Postemergence
  Plant response rating (0 to 10; 0 is no effect, 10 is complete control), Giant foxtail: 4
Giant foxtail; [7]
  Giant foxtail plant response rating: 6
rape; [1]
  Rape plant response rating: 0
rape; [2]
  Rape plant response rating: 0
rape; [3]
  Plant response rating, Rape: 0
rape; [4]
  Rape plant response rating: 0
rape; [5]
  Rape plant response rating: 0
rape; [6]
  Rape plant response rating: 0
rape; Rate 250 g/ha, Postemergence
  Plant response rating (0 to 10; 0 is no effect, 10 is complete control), Rape: 0
rape; [7]
  Rape plant response rating: 3
soybean; [1]
  Soybean plant response rating: 0
soybean; [2]
  Soybean plant response rating: 0
soybean; [3]
  Plant response rating, Soybean: 0
soybean; [4]
  Soybean plant response rating: 1
soybean; [5]
  Soybean plant response rating: 1
soybean; [6]
  Soybean plant response rating: 0
soybean; Rate 250 g/ha, Postemergence
  Plant response rating (0 to 10; 0 is no effect, 10 is complete control), Soybean: 1
soybean; [7]
  Soybean plant response rating: 2
Sugar beet; [1]
  Sugarbeets plant response rating: 0
Sugar beet; [2]
  Sugarbeets plant response rating: 0
Sugar beet; [3]
  Plant response rating, Sugarbeets: 0
Sugar beet; [4]
  Sugarbeets plant response rating: 0
Sugar beet; [5]
  Sugarbeets plant response rating: 0
Sugar beet; [6]
  Sugarbeets plant response rating: 0
Sugar beet; Rate 250 g/ha, Postemergence
  Plant response rating (0 to 10; 0 is no effect, 10 is complete control), Sugarbeets: 0
Sugar beet; [7]
  Sugarbeets plant response rating: 2
velvetleaf; [1]
  Velvetleaf plant response rating: 0
velvetleaf; [2]
  Velvetleaf plant response rating: 0
velvetleaf; [3]
  Plant response rating, Velvetleaf: 0
velvetleaf; [4]
  Velvetleaf plant response rating: 0
velvetleaf; [5]
  Velvetleaf plant response rating: 0
velvetleaf; [6]
  Velvetleaf plant response rating: 0
velvetleaf; Rate 250 g/ha, Postemergence
  Plant response rating (0 to 10; 0 is no effect, 10 is complete control), Velvetleaf: 0
wheat; [1]
  Wheat plant response rating: 0
wheat; [2]
  Wheat plant response rating: 0
wheat; [3]
  Plant response rating, Wheat: 0
wheat; [4]
  Wheat plant response rating: 0
wheat; [5]
  Wheat plant response rating: 0
wheat; [6]
  Wheat plant response rating: 0
wheat; Rate 250 g/ha, Postemergence
  Plant response rating (0 to 10; 0 is no effect, 10 is complete control), Wheat: 0
Purple nutsedge; [1]
  Nutsedge plant response rating: 0
Purple nutsedge; [2]
  Nutsedge plant response rating: 0
Purple nutsedge; [3]
  Plant response rating, Nutsedge: 0
Purple nutsedge; [4]
  Nutsedge plant response rating: 0
Purple nutsedge; [5]
  Nutsedge plant response rating: 0
Purple nutsedge; [6]
  Nutsedge plant response rating: 0
Purple nutsedge; Rate 250 g/ha, Postemergence
  Plant response rating (0 to 10; 0 is no effect, 10 is complete control), Nutsedge: 0
Purple nutsedge; [7]
  Nutsedge plant response rating: 0
rice; [8]
  Rice plant response rating: 0
rice; [9]
  Rice plant response rating: 0
rice; [10]
  Rice plant response rating: 0
rice; [11]
  Rice plant response rating: 0
Smallflower flatsedge; [8]
  S. Flatsedge plant response rating: 0
Smallflower flatsedge; [9]
  S. Flatsedge plant response rating: 0
Smallflower flatsedge; [10]
  S. Flatsedge plant response rating: 0
Smallflower flatsedge; [11]
  S. Flatsedge plant response rating: 0
Duck salad; [8]
  Ducksalad plant response rating: 0
Duck salad; [9]
  Ducksalad plant response rating: 0
Duck salad; [10]
  Ducksalad plant response rating: 0
Duck salad; [11]
  Ducksalad plant response rating: 0
bamyardgrass; [8]
  Barnyardgrass plant response rating: 0
bamyardgrass; [9]
  Barnyardgrass plant response rating: 0
bamyardgrass; [10]
  Barnyardgrass plant response rating: 0
bamyardgrass; [11]
  Barnyardgrass plant response rating: 0
